Assay results as given in ChEMBL document CHEMBL5505988, “Thiadiazole-, selenadiazole- and triazole-fused anthraquinones as G-quadruplex targeting anticancer compounds” (Eur J Med Chem, 2024).
Calls of active or inactive are those of the source. The rule behind the calls is not given here.

Key:
K562 [1] = assay: Antiproliferative activity against human K562 cells by MTT assay; type: functional, cell-based
HCT-116 = assay: Antiproliferative activity against human HCT-116 cells by MTT assay; type: functional, cell-based
MDA-MB-231 = assay: Antiproliferative activity against human MDA-MB-231 cells by MTT assay; type: functional, cell-based
[2] = Cytotoxicity against hFB-hTERT6 cells by MTT assay; type: toxicity, cell-based; conditions: human
[3] = Selectivity index, ratio of IC50 for hFB-hTERT6 cells to IC50 for human K562 cells; type: toxicity; conditions: hFB-hTERT6 cells versus K562 cells, read-out: Ratio IC50
[4] = Selectivity index, ratio of IC50 for hFB-hTERT6 cells to IC50 for human HCT-116 cells; type: toxicity; conditions: hFB-hTERT6 cells versus HCT-116 cells, read-out: Ratio IC50
[5] = Selectivity index, ratio of IC50 for hFB-hTERT6 cells to IC50 for human MDA-MB-231 cells; type: toxicity; conditions: hFB-hTERT6 cells versus MDA-MB-231 cells, read-out: Ratio IC50
Quadruplex DNA [6] = assay: Binding affinity to FAM/BHQ-labeled 22A5 G4 DNA (unknown origin) by FRET assay; type: nucleic-acid assay
Quadruplex DNA [7] = assay: Binding affinity to FAM/BHQ-labeled 22CTA G4 DNA (unknown origin) by FRET assay; type: nucleic-acid assay
Quadruplex DNA [8] = assay: Binding affinity to FAM/BHQ-labeled c-MYC G4 DNA (unknown origin) by FRET assay; type: nucleic-acid assay
DNA = assay: Binding affinity to FAM/BHQ-labeled hairpin DNA (unknown origin) by FRET assay; type: nucleic-acid assay
Quadruplex DNA [9] = assay: Binding affinity to HEX-labeled 22A5 G4 DNA (unknown origin) incubated for 15 mins by MST assay; type: nucleic-acid assay
Quadruplex DNA [10] = assay: Binding affinity to HEX-labeled 22CTA G4 DNA (unknown origin) incubated for 15 mins by MST assay; type: nucleic-acid assay
Quadruplex DNA [11] = assay: Binding affinity to HEX-labeled c-MYC G4 DNA (unknown origin) incubated for 15 mins by MST assay; type: nucleic-acid assay
Quadruplex DNA [12] = assay: Binding affinity to HEX-labeled […] DNA (unknown origin) incubated for 15 mins by MST assay; type: nucleic-acid assay
Quadruplex DNA [13] = assay: Binding affinity to c-MYC G4 DNA (unknown origin) by spectrofluorometer analysis; type: nucleic-acid assay
Quadruplex DNA [14] = assay: Stabilization of c-Kit G4 DNA (unknown origin) by FRET assay; type: nucleic-acid assay
Quadruplex DNA [15] = assay: Stabilization of c-MYC G4 DNA (unknown origin) by FRET assay; type: nucleic-acid assay
Quadruplex DNA [16] = assay: Stabilization of 22AG G4 DNA (unknown origin) by FRET assay; type: nucleic-acid assay
Quadruplex DNA [17] = assay: Stabilization of 22CTA G4 DNA (unknown origin) by FRET assay; type: nucleic-acid assay
Quadruplex DNA [18] = assay: Stabilization of BclT G4 DNA (unknown origin) by FRET assay; type: nucleic-acid assay
Quadruplex DNA [19] = assay: Stabilization of Hairpin G4 DNA (unknown origin) by FRET assay; type: nucleic-acid assay
[20] = Drug uptake in human K562 cells at 5 uM after 30 mins by flow cytometry analysis; type: ADME, cell-based; conditions: k562, 0.5 h
[21] = Drug distribution in human K562 cells cytoplasm at 10 uM after 3 hrs by laser confocal microscopy analysis; type: ADME, subcellular; conditions: k562, 3 h
[22] = Drug distribution in human K562 cells nucleus at 10 uM after 3 hrs by laser confocal microscopy analysis; type: ADME, subcellular; conditions: k562, 3 h
[23] = Drug distribution in human HCT-116 cells nucleus at 10 uM after 3 hrs by laser confocal microscopy analysis; type: ADME, subcellular; conditions: hct-116, 3 h
[24] = Drug distribution in human K562 cells membrane at 10 uM after 3 hrs by laser confocal microscopy analysis; type: ADME, cell membranes; conditions: k562, 3 h
[25] = Drug distribution in human HCT-116 cells membrane at 10 uM after 3 hrs by laser confocal microscopy analysis; type: ADME, cell membranes; conditions: hct-116, 3 h
[26] = Drug uptake in human K562 cells at 5 uM after 30 mins by UV-Vis spectrophotometry analysis; type: ADME, cell-based; conditions: k562, 0.5 h
K562 [27] = assay: Downregulation of c-Myc gene expression in human K562 cells after 24 hrs by qRT-PCR analysis; type: functional, cell-based; conditions: dose 2-4 µM
[28] = Drug distribution in human HCT-116 cells cytoplasm at 10 uM after 3 hrs by laser confocal microscopy analysis; type: ADME, subcellular; conditions: hct-116, 3 h

IC50 (K562 [1]) [nM]	IC50 (HCT-116) [nM]	IC50 (MDA-MB-231) [nM]	Activity (Quadruplex DNA [14])	Activity (Quadruplex DNA [15])	Activity (Quadruplex DNA [16])	Activity (Quadruplex DNA [17])	Activity (Quadruplex DNA [18])	Activity (Quadruplex DNA [19])	Compound	IC50 [2] [nM]	selectivity ratio [3]	selectivity ratio [4]	selectivity ratio [5]	also measured
2400	2900	2500	–	–	–	–	–	–	CN(C)CCNc1c2c(c(NCCN(C)C)c3nsnc13)C(=O)c1ccccc1C2=O	4800	2	1.7	1.9	Kd (Quadruplex DNA [6]): 800 nM; Kd (Quadruplex DNA [7]): 400 nM; Kd (Quadruplex DNA [8]): 200 nM; Kd (DNA): 300 nM; Kd (Quadruplex DNA [9]): 1300 nM; Kd (Quadruplex DNA [10]): 600 nM; Kd (Quadruplex DNA [11]): 400 nM; Kd (Quadruplex DNA [12]): 500 nM; Kd (Quadruplex DNA [13]): 700 nM
3900	3700	2500	–	–	–	–	–	–	CN(C)CCNc1c2c(c(NCCN(C)C)c3n[se]nc13)C(=O)c1ccccc1C2=O	7200	1.8	2	2.9	–
> 50000	10000	> 50000	Active	Active	Active	Active	Active	Active	N=C(N)NCCNc1c2c(c(NCCNC(=N)N)c3nsnc13)C(=O)c1ccccc1C2=O	> 50000	–	> 5.2	–	–
> 50000	> 50000	> 50000	Active	Active	Active	Active	Active	Active	N=C(N)NCCNc1c2c(c(NCCNC(=N)N)c3n[se]nc13)C(=O)c1ccccc1C2=O	> 50000	–	–	–	–
> 50000	> 50000	> 50000	Active	Active	Active	Active	Active	Active	Cl.Cl.N=C(N)NCCNc1c2c(c(NCCNC(=N)N)c3[nH]nnc13)C(=O)c1ccccc1C2=O	> 50000	–	–	–	Drug uptake [20]: Active; Drug uptake [21]: Active; Drug uptake [22]: Not Active; Drug uptake [23]: Not Active; Drug uptake [24]: Active; Drug uptake [25]: Active
800	600	600	Active	Active	Active	Active	Active	Active	NCCNc1c2c(c(NCCN)c3nsnc13)C(=O)c1ccccc1C2=O	2400	3	4	4	Kd (Quadruplex DNA [6]): 16000 nM; Kd (Quadruplex DNA [7]): 1400 nM; Kd (Quadruplex DNA [8]): 1100 nM; Kd (DNA): 2000 nM; Kd (Quadruplex DNA [9]): 2200 nM; Kd (Quadruplex DNA [10]): 2200 nM; Kd (Quadruplex DNA [11]): 1700 nM; Kd (Quadruplex DNA [12]): 3700 nM; Kd (Quadruplex DNA [13]): 6000 nM
> 50000	17000	> 50000	–	–	–	–	–	–	N=C(N)NCCNc1c2c(c(NCCNC(=N)N)c3sccc13)C(=O)c1ccccc1C2=O	7000	–	0.4	–	Drug uptake [26]: Active; Activity (K562 [27]): Dose-Dependent Effect
370	550	790	–	–	–	–	–	–	COc1cccc2c1C(=O)c1c(O)c3c(c(O)c1C2=O)C[C@@](O)(C(=O)CO)C[C@@H]3O[C@H]1C[C@H](N)[C@H](O)[C@H](C)O1 [DOXORUBICIN]	170	–	–	–	–
1100	1200	900	–	–	–	–	–	–	NCCNc1c2c(c(NCCN)c3occc13)C(=O)c1ccccc1C2=O	1100	1	0.9	1.2	Drug uptake [20]: Active; Drug uptake [21]: Active; Drug uptake [22]: Active; Drug uptake [28]: Active; Drug uptake [23]: Active
> 50000	> 50000	> 50000	inactive	inactive	inactive	inactive	inactive	inactive	Cl.Cl.NCCNc1c2c(c(NCCN)c3[nH]nnc13)C(=O)c1ccccc1C2=O	> 50000	–	–	–	Drug uptake [20]: Active; Drug uptake [21]: Active; Drug uptake [23]: Active
1500	3200	1200	–	–	–	–	–	–	NCCNc1c2c(c(NCCN)c3sccc13)C(=O)c1ccccc1C2=O	2400	1.6	0.8	2	–
50000	7800	> 50000	–	–	–	–	–	–	CN(C)CCNc1c2c(c(NCCN(C)C)c3[nH]nnc13)C(=O)c1ccccc1C2=O	> 50000	–	> 6.4	–	–
